{
  "source": "patent US5786377A",
  "about": "“Pyrrolo[3,2-E]indol derivatives, process for the preparation thereof and applications” (Universidad de Santiago de Compostela, priority 1993, dated 1998)",
  "key": {"[1]": {"tested_on": "cancer", "test": "anticarcinogenic activity in vivo and toxicity, general statement on the biological activity studies", "details": "in words; for toxicity: in vivo", "from_the_text": "This makes them especially ideal for used as agents for the therapeutic treatment of cancer in its diverse manifestations and, especially, in cases of leukemia."}, "[2]": {"tested_on": "P388 leukemic tumor", "test": "P388 antitumoral model in vivo, survival of leukemic mice (%C/T)", "design": "species or system mouse", "experimental": "Description of the P388 Antitumoral Model\nNormally, 1×10^6 cells in ascitic fluid was implanted. i.p. in CD2 F1 mice. Treatment with the agent tested i.p. began one day after the tumor had been implanted and it is continued daily up to a total of 5 injections for synthetic products and of 9 injections for raw natural products. The results are expressed as percentage of the control survival time.\nCDFl mice weighing 18-22 gr (+/-3 gr) were implanted on day 0 of the test period 0.1 ml. of a dilution of 1.0×10^7 tumor cells coming from DBA/2N mice used for the propagation of the tumor.\nOn day 1 of the test period the animals were grouped at randam in groups of six animals. Each group is weighed and the average weight is written down. Each compound to be tested in duluted in 4 lvels of dosis for each multidose test as of the determiantion of the highest non-toxic dose (v.g. 400 mg/kg; 100 mg/kg; 10 mg/kg.)\nAdministration of the test compounds is started on day 1 using volumns of 1/2 drug injected i.p. Injections are given on days 1 to 9 of the test period, unless it is indicated to the contrary. The animals are weighed on day 5, which is the one which in this system is considered the day of toxicity. Toxicity in this test system is defined as: […]\nA. 34% deaths up to day 5--acute toxicity\nB. C/T <85% --chronic toxicity\nC. A negative average of the weight change of the animals >4 g up to day 5--chronic toxicity\nThe data obtained upon testing the compounds in vivo in comparison with the P388 leukemic tumor model in mice are shown in the following table:\nWhere %C/T means average survival of the tested group/average survival of […]"}, "[3]": {"details": "cited from earlier work"}, "[4]": {"details": "compared with CC-1065; cited from earlier work"}, "[5]": {"tested_on": "P388", "details": "cited from earlier work"}, "[6]": {"details": "in words; cited from earlier work"}, "[7]": {"tested_on": "MEL-28", "test": "in vitro test, MEL-28", "type": "cell-based", "details": "Homo sapiens, SK-MEL-28", "from_the_text": "(§1) On the other hand, the results of the tests in vitro carried out on compounds (IIIa) and (IIIb) were the following: […]"}, "[8]": {"tested_on": "HT-29", "test": "in vitro test, HT-29", "type": "cell-based", "details": "Homo sapiens", "from_the_text": "as §1"}, "[9]": {"tested_on": "A-549", "test": "in vitro test, A-549", "type": "cell-based", "details": "Homo sapiens, A549", "from_the_text": "as §1"}, "[10]": {"tested_on": "P-388", "test": "in vitro test, P-388", "type": "cell-based", "details": "Mus musculus, P388", "from_the_text": "as §1"}},
  "data": [
    {"smiles": "COC(=O)c1cn(C)c2c1C13CC1CN(C(=O)c1cc4cc(NC(=O)c5cc6ccccc6o5)ccc4[nH]1)C3=CC2=O", "note": "(stereo not drawn) [(IV), methyl 2-[5-[(benzofuran-2-ylcarbonyl)amino]-1H-indol-2-carbonyl]-5-methyl-4-oxo,1,2,4,5,8,8,a-hexahydrocyclopropa[c]pyrrolo[3,2-e]indol-7-carboxylate]", "values": [
      {"measurement": "toxicity", "setting": "[1]", "value": "very low toxicity"},
      {"measurement": "anticarcinogenic activity in vivo", "setting": "[1]", "value": "high anticarcinogenic activity in vivo"},
      {"measurement": "%C/T (average survival of the tested group/average survival of the controls and untreated ones)", "setting": "[2]; 0.300 mg/kg i.p.", "value": 251.1, "unit": "%"},
      {"measurement": "%C/T activity class (significance mark)", "setting": "[2]; 0.300 mg/kg i.p.", "value": "** (Significant activity (strong): C/T > = 175%)"}
    ]},
    {"smiles": "COC(=O)c1cn(C)c2c1C13CC1CN(C(=O)c1cc4cc(OC)c(OC)c(OC)c4[nH]1)C3=CC2=O", "note": "(stereo not drawn) [(VI), methyl 2-(5,6,7-trimethoxy-1H-indolz2-carbonyl)-5-methyl-4-oxo-1,2,4,5,8a-hexahydrocyclopropa[c]pyrrolo[3,2-e]indol-7-carboxylate]", "values": [
      {"measurement": "toxicity", "setting": "[1]", "value": "very low toxicity"},
      {"measurement": "anticarcinogenic activity in vivo", "setting": "[1]", "value": "high anticarcinogenic activity in vivo"},
      {"measurement": "%C/T (average survival of the tested group/average survival of the controls and untreated ones)", "setting": "[2]; 0.500 mg/kg i.p.", "value": 210.9, "unit": "%"},
      {"measurement": "%C/T activity class (significance mark)", "setting": "[2]; 0.500 mg/kg i.p.", "value": "** (Significant activity (strong): C/T > = 175%)"}
    ]},
    {"smiles": "Cc1c[nH]c2c1C13CC1CN(C(=O)c1cc4cc(NC(=O)c5cc6ccccc6o5)ccc4[nH]1)C3=CC2=O", "note": "(stereo not drawn) [Adocelesine]", "values": [
      {"measurement": "delayed lethality", "setting": "[3]; mouse, in vivo", "value": "without provoking delayed lethality"},
      {"measurement": "tumoral effectiveness versus the natural product", "setting": "[4]", "value": "greatly exceeds the natural product in tumoral effectiveness"}
    ]},
    {"smiles": "O=C(Nc1ccc2[nH]c(C(=O)N3CC4CC45C3=CC(=O)c3ccccc35)cc2c1)c1cc2ccccc2[nH]1", "note": "(stereo not drawn) [CBI-Ind2]", "values": [
      {"measurement": "results in the P388 model in vivo", "setting": "[5]", "value": "very good results in the P388 model in vivo"}
    ]},
    {"smiles": "COc1c(O)c2c(c3cc(C(=O)N4CCc5c4c(O)c(OC)c4[nH]c(C(=O)N6CC7CC78C6=CC(=O)c6[nH]cc(C)c68)cc54)[nH]c13)CCN2C(N)=O", "note": "(stereo not drawn) [CC-1065]", "values": [
      {"measurement": "cytotoxic strength", "setting": "[6]", "value": "extremely strong cytoxine"},
      {"measurement": "toxicity (delayed deaths)", "setting": "[3]; mice, therapeutic doses", "value": "high toxicity, producing delayed deaths in mice at therapeutic doses"}
    ]},
    {"smiles": "COC(=O)c1cn(C)c2c(O)cc3c(c12)C(CCl)CN3C(=O)c1cc2cc(NC(=O)c3cc4ccccc4o3)ccc2[nH]1", "note": "(stereo not drawn) [Compound (III), methyl 6-{5-[(benzofuran-2-ylcarbonyl)-amino]1H-indol-2-carbonyl}-8-chloromethyl-4-hydroxy-3-methyl-3,6,7,8,tetrahydropyrrolo[3,2-e]indol-1-carboxylate]", "values": [
      {"measurement": "toxicity", "setting": "[1]", "value": "very low toxicity"},
      {"measurement": "anticarcinogenic activity in vivo", "setting": "[1]", "value": "high anticarcinogenic activity in vivo"},
      {"measurement": "%C/T (average survival of the tested group/average survival of the controls and untreated ones)", "setting": "[2]; 0.500 mg/kg i.p.", "value": "> 391.3", "unit": "%"}
    ]},
    {"smiles": "COC(=O)c1cn(C)c2c(O)cc3c(c12)C(CCl)CN3C(=O)c1cc2cc(OC)c(OC)c(OC)c2[nH]1", "note": "(stereo not drawn) [Compound (V), methyl 6-(5,6,7-trimethoxy-1H-indol-2-carbonyl)-8-chloromethyl-4-hydroxy-3-methyl-3,6,7,8-tetra-hydropyrrololo[3,2-e]indol-1-carboxylate]", "values": [
      {"measurement": "toxicity", "setting": "[1]", "value": "very low toxicity"},
      {"measurement": "anticarcinogenic activity in vivo", "setting": "[1]", "value": "high anticarcinogenic activity in vivo"},
      {"measurement": "%C/T (average survival of the tested group/average survival of the controls and untreated ones)", "setting": "[2]; 0.050 mg/kg i.p.", "value": 133.9, "unit": "%"},
      {"measurement": "%C/T activity class (significance mark)", "setting": "[2]; 0.050 mg/kg i.p.", "value": "** (Significant activity (strong): C/T > = 175%)"}
    ]},
    {"smiles": "COC(=O)c1cn(C)c2c(OC(=O)c3ccc([N+](=O)[O-])cc3)cc3c(c12)C(CCl)CN3C(=O)c1cc2cc(NC(=O)c3cc4ccccc4o3)ccc2[nH]1", "note": "(stereo not drawn) [IIIb]", "values": [
      {"measurement": "IC50", "setting": "[7]", "value": 0.5, "unit": "ng/mL"},
      {"measurement": "IC50", "setting": "[8]", "value": 0.5, "unit": "ng/mL"},
      {"measurement": "IC50", "setting": "[9]", "value": 0.1, "unit": "ng/mL"},
      {"measurement": "IC50", "setting": "[10]", "value": 0.02, "unit": "ng/mL"}
    ]}
  ]
}
